Data published in paper PMC11784839, “Monoaminergic neurotransmitters are bimodal effectors of tau aggregation” (Science Advances, 2025).

Biological target: tau (Homo sapiens, UniProt P10636)
Assay: MCE Phenols Library screening, tau biosensor cell seeding assay (AvZ)
Assay type: cell-based
Conditions: for Z repl 1 / Z Repl 2: Z score; for Z repl 1 / raw data 1: replicate 1; for Z Repl 2 / raw data 2: replicate 2; for AvZ (average z score of seeding, SDs from the mean level of seeding): 10 μM phenol in cell cultures, AD brain homogenate preincubated 16 hours, two biological replicates, positive = catalyzes seeding, negative = inhibits
[1] = average Z score of the two replicates, MCE Phenols Library screen
[2] = average puncta of the two replicates
[3] = average Z score of the two replicates, tau seeding
[4] = average Z score of the two replicates, tau biosensor seeding, MCE Phenols Library screen

Sequence of tau (P10636 623-695 limits assumed): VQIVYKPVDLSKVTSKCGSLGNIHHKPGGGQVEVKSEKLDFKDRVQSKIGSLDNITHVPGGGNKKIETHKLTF

Z repl 1	Z Repl 2	av Z [1]	av puncta (average of raw data 1 and 2)	raw data 1 (puncta)	raw data 2 (puncta)	av puncta [2]	av Z [3]	raw data 1 (raw puncta)	raw data 2 (raw puncta)	av Z (average Z score of two replicates, Phenols Library screen)	av Z [4]	SMILES	AvZ (average z score of seeding, SDs from the mean level of seeding)
0.624	0.805		27603.9	33843.5	21364.3		0.715					CC1(C)C=Cc2c(ccc3c2OC[C@@H](c2ccc(O)cc2O)C3)O1 [Glabridin]	
0.123	-0.524	-0.2				17498.7		27830.8	7166.64			COc1cc2c(=O)c(-c3ccc(O)cc3)coc2cc1O [Glycitein]	
0.796	0.821		28718.5	35905.3	21531.6						0.808	COc1c(CC=C(C)C)c(O)cc2oc(=O)c(-c3ccc(O)cc3O)cc12 [Glycycoumarin]	
-0.561	-0.884	-0.722		19618.8	3323.85	11471.3						O=c1c(O)c(-c2ccc(O)c(O)c2)oc2c(O[C@@H]3O[C@H](CO)[C@@H](O)[C@H](O)[C@H]3O)c(O)cc(O)c12 [Gossypin]	
0.553	-0.208		21762.9	32984.4	10541.3		0.172					COc1cc2c(cc1O)CC[n+]1cc3c4c(ccc3cc1-2)OCO4 [Groenlandicine]	
0.758	0.703		27858.6	35445.3	20271.9						0.73	C[C@@H]1O[C@@H](Oc2c(-c3ccc(O)cc3)oc3cc(O[C@@H]4O[C@@H](C)[C@H](O)[C@@H](O)[C@H]4O[C@@H]4O[C@H](CO)[C@@H](O)[C@H](O)[C@H]4O)cc(O)c3c2=O)[C@H](O)[C@H](O)[C@H]1O [Grosvenorine]	
-0.724	-0.582			17657.8	6546.75	12102.3						COc1ccccc1O [Guaiacol]	-0.653
-0.067	-0.383	-0.225				17108.5		25544.8	8672.24			O=c1c(O[C@@H]2OC[C@H](O)[C@H](O)[C@H]2O)c(-c2ccc(O)c(O)c2)oc2cc(O)cc(O)c12 [Guaijaverin]	
-2.129	-1.129	-1.629	747.252	787.042	707.463							O=c1c(O)c(-c2ccc(O)cc2)oc2c(O)c(O)cc(O)c12 [Herbacetin]	-1.63
0.687	-0.112		23081.7	34594.7	11568.8		0.287					O=c1cc(O)cc(/C=C/c2ccc(O)c(O)c2)o1 [Hispidin]	

More lines, now with the values behind:

SMILES	Z repl 1	Z Repl 2	av Z [1]	av puncta (average of raw data 1 and 2)	raw data 1 (puncta)	raw data 2 (puncta)	av puncta [2]	av Z [3]	raw data 1 (raw puncta)	raw data 2 (raw puncta)	av Z (average Z score of two replicates, Phenols Library screen)	av Z [4]	AvZ (average z score of seeding, SDs from the mean level of seeding)
C[C@@H]1O[C@@H](OC[C@H]2O[C@@H](OCCc3ccc(O)c(O)c3)[C@H](O)[C@@H](OC(=O)/C=C/c3ccc(O)c(O)c3)[C@@H]2O)[C@H](O)[C@H](O)[C@H]1O [Forsythoside I]	-1.102	-0.666	-0.884	9388.55	13120.4	5656.67							
COc1cc2ccc(=O)oc2c(O)c1O [Fraxetin]	-0.275	-0.769	-0.522		23050.6	4555.69	13803.1						
COc1cc2ccc(=O)oc2c(O)c1OC [Fraxidin]	0.561	-0.256		21554.2	33079.8	10028.5		0.152					
COc1cc2ccc(=O)oc2c(O[C@@H]2O[C@H](CO)[C@@H](O)[C@H](O)[C@H]2O)c1O [Fraxin]	0.183	-0.668	-0.243				17088		28547.2	5628.78			
O=c1c(O)c(-c2ccccc2)oc2cc(O)cc(O)c12 [Galangin]	0.212	-0.203		19744.8	28893.6	10595.9					0.004		
O.O=C(O)c1cc(O)c(O)c(O)c1 [Gallic acid (hydrate)]	-1.396	-1.097		5320.33	9587.18	1053.49							-1.246
O=C(O)c1cc(O)c(O)c(O)c1 [Gallic acid]	-2.072	-1.182		803.018	1468.86	137.18							-1.627
CC(C)=CCC/C(C)=C/Cc1c(O)c(CC=C(C)C)c2c(c1O)C(=O)C1=C[C@@H]3C[C@H]4C(C)(C)O[C@@](C/C=C(/C)C(=O)O)(C3=O)[C@@]14O2 [Gambogenic acid]			-1.587										
CC(C)=CCC[C@]1(C)C=Cc2c(O)c3c(c(CC=C(C)C)c2O1)O[C@]12C(=C[C@@H]4C[C@H]1C(C)(C)O[C@@]2(C/C=C(/C)C(=O)O)C4=O)C3=O [Gambogic acid]	-2.192	-0.952	-1.572	1315.22	33.834	2596.6							-1.57
CC(C)=CCc1c(O)cc2oc3cc(O)c(O)c(CC=C(C)C)c3c(=O)c2c1O [Gamma-Mangostin]	-0.442	-0.111	-0.277				16310.3		21043.4	11577.2			
COc1ccc(-c2cc(=O)c3c(O)c(OC)c(OC)c(OC)c3o2)cc1 [Gardenin B]	0.816	0.967		29624.1	36150	23098.1						0.892	
OCc1ccc(O[C@@H]2O[C@H](CO)[C@@H](O)[C@H](O)[C@H]2O)cc1 [Gastrodin]	-1.05	-0.621	-0.836	9937.48	13738.4	6136.55							
O=c1c(-c2ccc(O)cc2)coc2cc(O)cc(O)c12 [Genistein]	0.361	0.231		22958.3	30681.6	15235.1		0.296					
O=c1c(-c2ccc(O)cc2)coc2cc(O[C@@H]3O[C@H](CO)[C@@H](O)[C@H](O)[C@H]3O)cc(O)c12 [Genistin]	0.673	0.138		24334.9	34427	14242.8		0.406					
COc1cc(O)c2c(=O)cc(-c3ccc(O)cc3)oc2c1 [Genkwanin]	1.231	0.655		30446.8	41129.3	19764.4						0.943	
O=C1O[C@H]2[C@@H]3OC(=O)c4cc(O)c(O)c(O)c4-c4c(cc(O)c(O)c4O)C(=O)OC[C@H]2O[C@@H](OC(=O)c2cc(O)c(O)c(O)c2)[C@@H]3OC(=O)c2cc(O)c(O)c3c2[C@@H]2C1=CC(=O)[C@](O)(O3)C2(O)O [Geraniin]	-2.121	-1.184	-1.653	501.022	880.948	121.096							
CCCCCC/C=C\CCCCCCCCCc1cccc(O)c1C(=O)O [Ginkgolic acid C17:1]	0.386	0.198		22931	30979.1	14882.8							0.292
Oc1cc(O)cc(/C=C/c2c(O)cccc2O)c1 [Gnetol]	-2.02	-1.135	-1.577	1372.64	2096.46	648.824							
Cc1cc2c(C(C)C)c(O)c(O)c(C=O)c2c(O)c1-c1c(C)cc2c(C(C)C)c(O)c(O)c(C=O)c2c1O [Gossypol]	-2.171	-0.607	-1.389	3285.13	287.373	6282.89							
Oc1cc2c(cc1O)[C@@H]1c3ccc(O)c(O)c3OC[C@]1(O)C2 [Hematoxylin]	-1.7	-0.865	-1.283	4731.6	5936.96	3526.25							
Cl.Oc1ccc(CC2NCCc3cc(O)c(O)cc32)cc1 (stereo not drawn) [Higenamine (hydrochloride)]	-0.238	-1.059	-0.649		23487.2	1451.73	12469.5						
COc1cc(CNC(=O)CCCCCCCC(C)C)ccc1O [Homodihydrocapsaicin I]	-0.665	0.327		17309.6	18361.4	16257.8							-0.169
O=C(O)Cc1cc(O)ccc1O [Homogentisic acid]	-1.286	-1.085		6046.8	10913.7	1179.87							-1.185
